Source: ChEMBL document CHEMBL1799910, “Optimization of 1,2,3,4-tetrahydroacridin-9(10H)-ones as antimalarials utilizing structure-activity and structure-property relationships” (J Med Chem, 2011)
≈ marks a conversion by molar mass, not a printed value.

Legend:
Plasmodium falciparum [1] = assay: Antimalarial activity against chloroquine and pyrimethamine-resistant Plasmodium falciparum W2 infected in human A positive erythrocytes after 72 hrs by SYBR Green I assay; assay type: functional, organism-based; settings: W2, 72 h
Plasmodium falciparum [2] = assay: Antimalarial activity against chloroquine, mefloquine, pyrimethamine and atovaquone-resistant Plasmodium falciparum TM90-C2B infected in human A positive erythrocytes after 72 hrs by SYBR Green I assay; assay type: functional, organism-based
Plasmodium falciparum [3] = assay: Resistance index, ratio of EC50 for chloroquine, mefloquine, pyrimethamine and atovaquone-resistant Plasmodium falciparum TM90-C2B to EC50 for chloroquine and pyrimethamine-resistant Plasmodium falciparum W2; assay type: functional
[4] = Aqueous solubility of compound at pH 7.4 by HPLC analysis; settings: buffer
[5] = Permeability of the compound by PAMPA method at pH 7.4; assay type: ADME; settings: read-out: permeability
[6] = Partition coefficient, log D of the compound at pH 7.4 by HPLC analysis; settings: octanol/water
[7] = Cytotoxicity index, ratio of EC50 for mouse J774 cells to EC50 for chloroquine, mefloquine, pyrimethamine and atovaquone-resistant Plasmodium falciparum TM90-C2B; assay type: cell-based; settings: read-out: Ratio EC50
J774 = assay: Cytotoxicity against mouse J774 cells after 72 hrs by Cell titer 96 aqueous one solution cell proliferation assay; assay type: cell-based; settings: J774, 72 h

Row | SMILES | EC50 (Plasmodium falciparum [1]) [nM] | EC50 (Plasmodium falciparum [2]) [nM] | Ratio EC50 (Plasmodium falciparum [3]) | solubility [4] [µM] | Papp [5] [×10⁻⁶ cm/s] | logD [6] | selectivity ratio [7] | EC50 (J774) [nM]
1 | O=C1CC(c2ccc(Cl)cc2Cl)Cc2nc3ccc(Cl)cc3c(O)c21 (centres undefined) | 8.71 | 27.8 | 3.19 | 1 (≈ 0.393 µg/mL) | 20 | 3.1 | ≥ 100 | 
2 | Cc1cc2[nH]c3c(c(=O)c2cc1C)CCCC3 | 262 | 216 |  | 41 (≈ 9.32 µg/mL) | 46 |  |  | > 20000
3 | COc1ccc2[nH]c3c(c(=O)c2c1)CCC(C)(C)C3 | > 9720 | > 9720 |  | 9.2 (≈ 2.37 µg/mL) | 128 | 2.3 | ≥ 100 | > 5000
4 | Cc1cccc2[nH]c3c(c(=O)c12)CCC(C)(C)C3 | > 9990 | > 9990 |  | 9 (≈ 2.17 µg/mL) | 240 | 2.8 | ≥ 100 | > 5000
5 | CC1(C)CCc2c([nH]c3cc(Cl)ccc3c2=O)C1 | 1080 | 645 | 0.6 | 1 (≈ 0.262 µg/mL) |  | 2.9 | ≥ 100 | > 1000
6 | CC(C)(C)c1cccc2c(=O)c3c([nH]c12)CCCC3 | > 9790 | > 9790 |  | 90 (≈ 23 µg/mL) | 553 | 3.3 | ≥ 100 | > 10000
7 | O=c1c2c([nH]c3c(C(F)(F)F)cccc13)CCCC2 | > 9350 | > 9350 |  | 116 (≈ 31 µg/mL) | 246 | 2.6 | ≥ 100 | > 20000
8 | Cc1cc(C)c2c(=O)c3c([nH]c2c1)CCCC3 | 3130 | 4830 | 1.54 | 17 (≈ 3.86 µg/mL) | 218 | 2.4 | ≥ 100 | 
9 | COc1ccc(OC)c2c(=O)c3c([nH]c12)CCCC3 | > 9640 | > 9640 |  | 105 (≈ 27.2 µg/mL) | 9 | 1.5 | ≥ 100 | > 20000
10 | COc1ccc2c(=O)c3c([nH]c2c1)CCC3 | 1130 | 610 | 0.54 | 91 (≈ 19.6 µg/mL) | 11 | 1.5 | ≥ 100 | > 40000
11 | COc1ccc2c(=O)c3c([nH]c2c1)CCCCC3 | 171 | 153 | 0.89 | 30 (≈ 7.3 µg/mL) | 39 | 2.1 | ≥ 100 | > 20000
12 | COc1ccc2c(=O)c3c([nH]c2c1)CCCCCC3 | 146 | 230 | 1.58 | 98 (≈ 25.2 µg/mL) | 73 | 2.4 | ≥ 100 | > 40000
13 | O=c1c2c([nH]c3cc(C(F)(F)F)ccc13)CCC2 | 2320 | 438 | 0.19 | 98 (≈ 24.8 µg/mL) | 60 | 2.3 | ≥ 100 | > 40000
14 | O=c1c2c([nH]c3cc(C(F)(F)F)ccc13)CCCC2 | 120 | 19 | 0.16 | 158 (≈ 42.2 µg/mL) | 73 | 2.7 | ≥ 100 | > 20000
15 | O=c1c2c([nH]c3cc(C(F)(F)F)ccc13)CCCCC2 | 4890 | > 4340 | >0.88 | 17 (≈ 4.78 µg/mL) | 131 | 3 | ≥ 100 | > 10000
16 | O=c1c2c([nH]c3cc(C(F)(F)F)ccc13)CCCCCC2 | 4740 | 4230 | 0.89 | 13 (≈ 3.84 µg/mL) | 252 | 3.2 | ≥ 100 | > 10000
17 | COc1cccc2c(=O)c3c([nH]c12)CCCC3 | 4770 | 4560 | 0.95 | 99 (≈ 22.7 µg/mL) | 16 | 1.7 | ≥ 100 | > 20000
18 | COc1ccc2[nH]c3c(c(=O)c2c1)CCCC3 | 2440 | 2530 | 1.03 | 78 (≈ 17.9 µg/mL) | 16 | 1.5 | ≥ 100 | > 40000
19 | COc1cccc2[nH]c3c(c(=O)c12)CCCC3 | 8970 | 5940 | 0.66 | 76 (≈ 17.4 µg/mL) | 17 | 1.2 | ≥ 100 | > 20000
20 | Cc1ccc2[nH]c3c(c(=O)c2c1)CCCC3 | 449 | 656 | 1.46 | 44 (≈ 9.38 µg/mL) | 19 | 1.7 | ≥ 100 | > 40000
21 | O=c1c2c([nH]c3c(Cl)ccc(Cl)c13)CCCC2 | > 9320 | > 9320 |  | 108 (≈ 29 µg/mL) | 288 | 2.6 | ≥ 100 | > 20000
22 | O=c1c2c([nH]c3c(Cl)cc(Cl)cc13)CCCC2 | > 9320 | > 9320 |  | 1 (≈ 0.268 µg/mL) | 252 | 3 | ≥ 100 | > 1000
23 | CC(C)Oc1cc2[nH]c3c(c(=O)c2cc1Cl)CCCC3 | 21.3 | 104 | 4.88 | 0.3 (≈ 0.0875 µg/mL) |  | 2.9 | ≥ 100 | > 100
24 | O=c1c2c([nH]c3cc(Br)ccc13)CCSC2 | 667 | > 8440 |  | 17 (≈ 5.04 µg/mL) | 6.3 | 0.9 | ≥ 100 | > 10000
25 | CN1CCc2[nH]c3ccccc3c(=O)c2C1 | > 9990 | > 9990 |  | 33 (≈ 7.07 µg/mL) | 21 | 1 | ≥ 100 | > 20000
26 | O=c1c2c([nH]c3ccc(Oc4ccc(F)cc4)cc13)CCCC2 | 169 | 47 | 0.28 | 8 (≈ 2.47 µg/mL) |  | 2.8 | ≥ 100 | > 5000
27 | CN(C)CCC/N=C1\CC(c2ccc(Cl)cc2Cl)Cc2nc3ccc(Cl)cc3c(O)c21 (racemic) | 25 | 300 | 12 |  |  |  | ≥ 100 | 
28 | C[C@H]1[C@@H](O)O[C@@H]2O[C@@]3(C)CC[C@H]4[C@H](C)CC[C@@H]1[C@@]24OO3 [ARTENIMOL] | 1.8 | 0.9 |  |  |  |  |  | 
29 | O=C1C(O)=C([C@H]2CC[C@H](c3ccc(Cl)cc3)CC2)C(=O)c2ccccc21 [ATOVAQUONE] | 0.53 | > 170 |  |  |  |  |  | 
